Structures can show the parent of a compound that is named as a salt. Where two headings read alike, the source gives them in different places.
Legend:
fungus = assay: Fungus growth on treated foods stored in closed containers at room temperature;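 as to Effectiveness on ginger: compared with untreated control ginger in closed containers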
Excerpt: (§1) Most of the foods changed color or texture.
Glass jars and bottles were also used. The containers were snap-closed or with a lid.
(§2) These bags were sealed with a heat sealer.
(§3) The assembly was shaken periodically.

[1] = test system: green tomato, papaya, banana, mango, peppers, tindora; assay: Ripening of fruits and vegetables (delayed or expedited); conditions: for Spoilage Time - Sample (Expedited ripening): control 14+ days; for Ripening, green-to-yellow (or red) color-change: pre-dipping into 10% solution
Protocol: (§4) All studies were conducted at a room temperature of about 25° C. To determine the effectiveness of a shelf-life extender, a control sample which was untreated with any shelf-life extenders, was tested identical to the test samples. […] All studies in those Examples of Tables 1-6 were conducted in closed plastic or glass containers. Containers, such as plastic containers, without or with lids having holes can be used if it is advantageous to let excess moisture escape or to prevent condensation of moisture released by some produce.
(§5) For controlled exposure and a constant supply of a preservative to foods, sachets containing one or more drops of preservatives were used. Sachets were made by placing an appropriate amount of a preservative in a plastic bag containing a piece of paper and heat sealing the bag. The sachet bag materials used were Tyvek® for solid preservative, polyethylene, polyester and high barrier multilayer films were used for liquid preservatives. These bags were sealed with a heat sealer. The sachet was typically applied on one side of the container containing food.
(§6) A piece of paper napkin was taped inside a 100 microns thick polyethylene or polyester Ziploc bag. The size of the bag varied from ˜20 cm×30 cm to ˜60 cm×90 cm depended on the sample with sandwich bags up to gallon bags being exemplary. The paper napkin was wetted with 0.1-0.5 ml of a preservative or a mixture of preservatives. A tray of aluminum, stainless steel or glass containing the foods was placed inside the plastic (polyethylene, polyester and multilayer-laminated) bag and almost closed by locking the Ziploc. Air was blown with an air blower from the unclosed end until the bag was fully blown and then quickly closed tightly by locking the remaining Ziploc. If a preservative was a sublimable solid, it was placed in a petri dish and then placed inside the bag in the tray before blowing air. The exposure time was varied from five minutes to a day depending upon the food. […] The assembly was shaken periodically. After the predetermined time, the tray containing produce was removed from the bag, allowed to de-gas for 10-30 minutes in air and the produce was then placed in an appropriately sized container. Glass and stainless steel containers with lids were also often used.
(§7) A solution of one or more preservatives was prepared in a large (e.g., 2-10 liter) glass beaker or a jar. A sack containing the food was prepared by placing the food in a plastic mesh bag. The sack was placed in the solution of the preservative. A smaller glass beaker containing proper amount of water was place over the package to keep the sack soaked in the solution of the preservative during the treatment. The solution was stirred either with a plastic spatula or with a magnet over a magnetic stirrer. After treatment, the mesh sack was removed, the produce was washed in a tray with running water, strained and air dried at 30° C. in an air blowing oven for about 5-10 minutes, while shaking the tray or turning the food periodically followed by placing the sample in an appropriate container.
The untreated (control sample) and treated food were placed in proper sized plastic containers and the containers were tightly closed.
The following major criteria were used for determining spoilage of foods: growth of fungus, color change, unpleasant odor, wilting, firmness or shriveling, change of state (liquid to solid or vice versa), and sprouting or germination Example 10: Sources of food.

[2] = General shelf-life extension of foods (spoilage criteria of Example 9); conditions: for Effectiveness for controlling one or more spoilage criteria: variety of foods
Protocol: as §4
(§8) Food exposed to preservatives or by a sachet was placed in typically polystyrene or acrylic containers depending upon the size and number of food items. Glass jars and bottles were also used. The containers were snap-closed or with a lid. The containers were purchased mainly from Amazon or Webstaurant.com store. When needed, plastic containers with holes or without lids were used.
as §5, §6, §7
(§9) The food was placed in mesh trays and sprayed with an aqueous solution (1-10%) of a preservative while shaking the tray or turning the food. The solution was allowed to drain from the tray and the food was air dried in an air blowing oven at 30° C. for about 5-10 minutes, while shaking the tray or turning food periodically followed by placing the sample in an appropriate container.

[3] = Color change / browning / yellowing of foods (keeping produce green longer); conditions: for Spoilage Time - Sample (Color change): 2% in water sprayed
Protocol: as §4, §8, §5, §6, §7, §9

[4] = test system: grains, legumes, potatoes, garlic; assay: Germination / sprouting of grains, legumes and tubers; conditions: for Spoilage Time - Sample: Example 111, Germination, Mixed Legumes, 64 hrs P-E, control 3 days
Excerpt: as §2, §3

avocado = assay: Softening / rotten inside (spoiled flesh) of avocado
Excerpt: as §1, §3

[5] = Color loss of meat and fish; conditions: for Spoilage Time - Sample (Color loss): Sachet, control 2 days
Excerpt: as §1, §2

[6] = test system: parval, methi, coriander, radish, guar; assay: Shriveling / wilting / dehydration / becoming wet of produce; conditions: for Spoilage Time - Sample (Dehydration): 0.08 hr soaking in 22% solution in water
Excerpt: as §1, §3

[7] = Curdling / cream / solidification of milk; conditions: pasteurized whole and fat-free milk;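 also: compared with untreated control milk in closed containers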
Excerpt: as §1

CCCCOCCO [2-butoxyethanol, 2-Butoxyethanol]
Fungus growth (fungus; 312 h): > 29 days | Spoilage Time - Sample (Fungus) (fungus; Red tomato, 2 hrs P-E, control 13 days): 29 days | Spoilage Time - Sample (Expedited ripening) ([1]; Mango, Sachet): 8 days | Effectiveness for controlling one or more spoilage criteria [2]: effective to a greater or lesser extent

CCOCCO [2-ethoxyethanol, 2-Ethoxyethanol]
Spoilage Time - Sample (Ripening) ([1]; Mango, 2 hrs P-E, control 16 days): 23 days

O=C1C=CCCC1 [2CY, 2-Cyclohexen-1-one]
Effectiveness on ginger (fungus; ginger, pre-exposure and sachet method): found effective | Spoilage Time - Sample ([3]; Example 114, Yellowing, Coriander, 1 hr P-E, control 10 days): 10+ days | Spoilage Time - Sample ([3]; Example 114, Yellowing, Coriander, 1 hr P-E, control 10 days, listed as 2-cyclohexen-1-one): significantly delayed | Spoilage Time - Sample [4]: 3 days | Spoilage Time - Sample ([4]; listed as 2-cyclohexen-1-one): delayed or prevented | Spoilage Time - Sample ([1]; Example 112, Ripeness, Papaya, 2 hrs P-E, control 7 days): 11 days | Spoilage Time - Sample ([1]; Example 112, Ripeness, Papaya, 2 hrs P-E, control 7 days, listed as 2-cyclohexen-1-one): at least 11 days | Effectiveness in delaying the ripening of tomatoes ([1]; unsaturated versus saturated homolog): more effective | Spoilage Time - Sample (avocado; Example 113, Softening, Avocado, 2 hrs P-E, control 2 days): 2 days | Spoiling of the flesh with development of fungus (avocado; avocados, Examples 77, 78, 107, 108, 113 & 171): significantly delayed | Shelf-life of flowery vegetables [2]: extended shelf-life | Shelf-life of shelled and unshelled peanuts ([2]; peanuts): extended | Effectiveness for controlling one or more spoilage criteria [2]: effective to a greater or lesser extent

NCCN [ED, Ethylenediamine]
Spoilage Time - Sample ([3]; Example 131, Color change, Parsley, 0.25 hr P-E, control 7 days): 22+ days | Spoilage Time - Sample ([3]; Example 131, Color change, Parsley, 0.25 hr P-E, control 7 days, listed as ethylenediamine): significantly delayed | Spoilage Time - Sample ([1]; Example 132, Ripening, Banana, 0.25 hr P-E, control 18 days): 21+ days | Spoilage Time - Sample ([1]; Example 132, Ripening, Banana, 0.25 hr P-E, control 18 days, listed as ethylenediamine): > 21 days | Effectiveness for controlling one or more spoilage criteria [2]: effective to a greater or lesser extent

N.NC(=O)O [ammonium carbamate, Ammonium carbamate]
Spoilage Time - Sample (Fungus) (fungus): 80+ days | Loss of pinkish fleshy color ([5]; Example 143, ground beef, sachet, 3rd day, control within 2 days): lost less fleshy pinkish color | Shelf-life of flowery vegetables [2]: extended shelf-life

C[N+](C)(C)CCO.[Cl-] [choline chloride, Choline chloride]
Spoilage Time - Sample (Color loss) ([3]; Broccoli, 1 hr soaking in 5% solution in water, control 1 day): 8 days | Remaining green ([3]; Example 149, Bok choy, pre-dipped into 22% solution): remained green longer | Color change ([3]; Example 150, parsley, pre-dipping/rinsing in 22% solution): delayed the color change | Color change from green-to-yellow ([3]; Example 152, broccoli, dipped into 5% solution): significantly delayed | Sprouting ([4]; Example 154, potatoes, pre-dipping into 10% solution): either prevented or significantly delayed | Spoilage Time - Sample (Sprouting) ([4]; Fingerling Potatoes, 2 hrs soaking in 10% solution in water, control 10 days): 16 days | Ripening, green-to-yellow (or red) color-change ([1]; Example 151, green chili peppers): delayed | Ripening, green-to-yellow (or red) color-change ([1]; Example 153, Jalapeno peppers): delayed | Spoilage Time - Sample (Ripening) ([1]; Jalapeño Peppers, 1 hr soaking in 10% solution in water, control 3 days): 8 days | Spoilage Time - Sample (Ripening) ([1]; Peppers, 2 hrs soaking in 10% solution in water, control 6 days): 13 days | Spoilage Time - Sample (Dehydration) ([6]; Bok Choy, control 7 days): 11 days | Spoilage Time - Sample (Dehydration) ([6]; Parsley, control 7 days): 11 days

COC(=O)OC [dimethyl carbonate, Dimethyl carbonate]
Expedited ripening ([1]; Example 155, mango, control around 14 days): 8 days | Spoilage Time - Sample (Expedited ripening) ([1]; Mango, Sachet): 8 days | Effectiveness for controlling one or more spoilage criteria [2]: effective to a greater or lesser extent

COC(=O)/C=C\C(=O)OC [dimethyl maleate, Dimethyl maleate]
Ripening ([1]; Example 156, mangoes, sachet, control 16 days): 23 days | Spoilage Time - Sample (Ripening) ([1]; Mango, Sachet, control 16 days): 23 days

O=C(O)C(O)c1ccccc1 (stereo not shown) [mandelic acid, Mandelic Acid]
Spoilage of coriander ([3]; Example 161, soaking in 1% solution): significantly delayed | Spoilage Time - Sample (Wet) ([6]; Coriander, 0.5 hr soaking in 1% solution in water, control 7 days): 7+ days

OB(O)c1ccccc1 [phenylboronic acid, Phenylboronic acid]
Spoilage Time - Sample (Fungus) (fungus; Blueberry, 2% in water sprayed, control 6 days): 10+ days | Spoilage Time - Sample (Fungus) (fungus; Strawberry, 2% in water sprayed, control 6 days): 10+ days | Fungus growth (fungus; strawberries, raspberries, blackberries and lychee): either prevented or significantly delayed | Spoilage Time - Sample (Color change) ([3]; Broccoli, control 4 days): 28 days | Color change from green to brown on the skin ([3]; Example 137, limes, sprayed with 2% solution in water, room temperature, control 6 days): > 10 days | Spoilage Time - Sample (Color change) ([3]; Lime, control 6 days): 6+ days | Spoilage Time - Sample (Color change) ([3]; Methi, control 4 days): 28 days | Curdling of milk [7]: delayed curdling | Germination/sprouting ([4]; Example 140, grains, mainly unhusked rice and soft white wheat, 2% spray, control 2 days): > 10 days | Spoilage Time - Sample (Germination) ([4]; Grains (mixed legumes and soft white wheat), 2% in water sprayed, control 2 days): 7+ days

(−)-Menthone
Dehydration/wilting ([6]; Example 162, radish, vapor, control 5 days): less dehydration/wilting | Spoilage Time - Sample (Shriveling) ([6]; Radish, 2 hrs P-E, control 5 days): 5 days | Shelf-life of flowery vegetables [2]: extended shelf-life

Ammonium carbonate
Spoilage Time - Sample (Color loss) ([5]; Ground Beef): 2+ days | Spoilage Time - Sample (Color loss) ([5]; Ground Chicken): 2+ days | Spoilage Time - Sample (Color loss) ([5]; Tilapia fish fillet): 2+ days | Improvements with meat and fish ([5]; meat and fish): demonstrated improvements | Shelf-life of flowery vegetables [2]: extended shelf-life | Effectiveness as shelf-life extender ([2]; tofu): effective
